Experimental findings from patent US10508126B2, “Bisphosphonates vinylic monomers and polymers and uses thereof” (BAR-ILAN UNIVERSITY, priority 2012, dated 2019) are described below.

The test is described as follows: Inhibition of HAP dissolution (calcium in supernatant by ICP). The following applies: compound 1 mM; supersaturated calcium phosphate, 0.05 M Tris pH 7.4, 37° C., 24 h. Type of test: physicochemical. As for the experimental part:
The test based on a slightly modified method of Francis et al. (Francis, M. D. The inhibition of calcium hydroxyapatite crystal growth by polyphosphonates and polyphosphates. Calcif Tissue Res 1969, 3, 151-162). The extent of HAP formation in the presence of inhibitors was studied in supersaturated calcium phosphate solutions.
The final concentration of calcium (CaCl2.2H2O) and phosphate (K2HPO4) ions in the incubation solutions was 3.87 mM and 2.32 mM, respectively, yielding a molar ratio of [Ca]/[PO4]=1.67, as in hydroxyapatite (HAP). Each salt solution was prepared in 0.05 M Tris buffer, pH 7.4. The tested BP compound (1 mM) was dissolved in […]. 5 ml of 7.74 mM CaCl2.2H2O solution containing the BP compound and 5 ml of the 4.64 mM K2HPO4 were mixed in borosilicate glass vials (acid and acetone washed). The vials were then placed in a shaker at 37° C. for 24 h. The vials contents were centrifuged (4 min, 4000 rpm) and the supernatants were then separated and analyzed for calcium concentration by ICP Analysis.

As to `C=Cc1ccc(C(O)(P(=O)([O-])[O-])P(=O)([O-])O)cc1.[Na+].[Na+].[Na+]` [St-BP monomer, Trisodium hydroxyl (4-vinylphenyl) methelenebisphosphonic acid], the “Calcium ions concentration in filtrate (% of initial concentration)” value is on record as 45 % of initial concentration.
